The values below come from US5859067A, “Use of natural products and related synthetic compounds for the treatment of cardiovascular disease” (priority 1993, dated 1999).

For data set [1], the target named is T1, human erythrocyte plasma membrane Ca^2+ -ATPase (Homo sapiens, UniProt P23634).
T1 construct: Calmodulin-depleted erythrocyte membranes were prepared by continuous filtration through a hollow fibre; tissue New South Wales Red Cross Transfusion Service, Sydney; host or cells: human packed red blood cells (calmodulin-depleted erythrocyte membranes)
Kind of data set: Ca^2+ -ATPase assay (erythrocyte membranes; Table 1). The data set is classed as biochemical. The note with it: for inhibition at 25 µM / inhibition at 100 µM: read-out: INHIBITION OF Ca^2+ -ATPase PERCENT (%); for Ca^2+ -ATPase inhibitory activity relative to striatol: compared with natural product striatol. As for the experimental part: Natural and synthetic compounds of formula (I) were tested for their ability to influence human erythrocyte plasma membrane Ca^2+ -ATPase.
(§1) Packed cells were obtained from the New South Wales Red Cross Transfusion Service, Sydney. The whole preparation was carried out at 4° C. 1 unit of packed red cells was washed 3 times with isotonic buffer, containing 130 mM KCl, 20 mM Tris-HCl (pH 7.4), and the cells were collected by centrifugation at 4,000 RPM. The cells were haemolysed by the buffer containing 1 mM EDTA, 10 mM Tris-Hcl (pH 7.4), 0.5 mM PMSF (phenylmethyl sulfonyl fluoride). The haemolyzate mixture was passed through the hollow fibre system until the membrane appeared white, and then washed with 10 mM potassium Hepes (pH 7.4). The membranes were collected by centrifugation at 10,000 RPM for 20 min, the membranes were resuspended in storage buffer containing 130 mM KCl, 2 mM dithiothreitol, 0.5 mM MgCl2, 20 mM potassium-Hepes (pH 7.5). The membranes with protein concentration of 1.5-5.4 mg/ml were stored at -80° C. until required.
Erythrocyte membranes (0.071-0.098 mg/ml) were incubated at 37° C. for one hour in a total volume of 0.4 ml of 65 mM KCl, 20 mM potassium-Hepes, 5 mM MgCl2, 50 μM CaCl2, 0.1 μm calmodulin, 0.1 mM EGTA. The reaction was started by adding 2 mM ATP(pH 7.4). […] The activity of the Mg^2+ -ATPase (assayed in the absence of added CaCl2) was subtracted from the total activity assayed in the presence of Ca^2+. […] A concentrated solution of the test substances was added to the reaction medium before adding ATP.

The subject of data set [2] is brine shrimp (Artemia salina Leach). Kind of data set: Brine shrimp toxicity bioassay. The class given is in vivo. The following applies: for LC50: Artemia salina, read-out: LC50 brine shrimp. As for the experimental part:
There are many applications of the assay including analysis of toxic substances, anaesthetics, morphine-like substances and cocarcinogenicity of phorbol esters.
6 (K Hostettman, ed.), Academ Press, London, 1-32. DMSO solutions of the substances to be tested were added directly to the vials containing the brine shrimp. As the concentration of DMSO that we wished to use was higher than the recommended 1% v/v testing of the toxicity of the DMSO was therefore necessary.
Brine shrimp toxicity was assayed, except for some minor modifications, according to the method of McLaughlin et al as reported in Brine Shrimp: A convenient general bioassay for active plant constituents, B N Meyer, N R Ferrigni, J E Putman, L B Jacobsen, D E Nhols and J L McLaughlin. […] J L McLaughlin. […] 6 (K Hostettman, ed.), Academ Press, London, 1-32. Ten shrimp were added transferred to each of the vials and the volume adjusted to 4.9 mL. Each dose was performed in triplicate, including the control. In quick succession, the appropriate volume of additional DMSO for each dose, required to achieve a final concentration of 2%, was added before the appropriate volume of test solution. The vials were gently mixed and the time noted. After 24 hours, the number of survivors were counted and % mortality was determined.
The LC50 values were expressed in both μM and μg/mL.

In data set [3] the target is T1, human erythrocyte plasma membrane Ca^2+ -ATPase. Kind of data set: Ca^2+ -ATPase assay (microplate method), absence (-CaM) and presence (+CaM) of calmodulin (Table 1A). The data set is classed as biochemical. Here is the method: Natural and synthetic compounds of formula (I) were tested for their ability to influence human erythrocyte plasma membrane Ca^2+ -ATPase. The enzyme Ca^2+ -ATPase in the human red blood cell plasma membrane has previously been studied and its stimulation by calmodulin and activation by lipids and proteolysis and its primary structure have been published (see Carafoli E (1991) Calcium pump of the plasma membrane, Physiological Reviews 71, 129-153.
as §1, with “Calmodulin-depleted erythrocyte membranes were prepared by continuous filtration through a hollow fibre, Ashahi plasma separator as described by W S Price, B D Roufogalis, P W Kuchel (1989), A simple and inexpensive method for preparing erythrocyte membranes by filtration through a hollow-filter system, Anal. Biochem., 179, 190-193. Packed” for “Packed”
Erythrocyte membranes were incubated at 37° C. for one hour in a total volume of 60 μl of 65 mM KCl, 50 mM HEPES (pH=7.4), 5 mM MgCl2, 50 μM CaCl2, 0.1 mM EGTA and in absence and presence of calmodulin (0.3 μM). Test compounds were dissolved in dimethyl sulfoxide DMSO and 2 μl was added to the assay mixture prior the addition of ATP. The final concentration of DMSO in the assay mixture was 3%. The reaction was started by adding 2 mM ATP (pH=7.4). After 1 hour of incubation, colouring agent (180 μl) was added and incubated at 37° C. for 1/2 hrs. The phosphate liberated to the assay medium was determined spectrometrically using a microplate reader at 750 nm. The activity of the Mg^2+ -ATPase (assayed in the absence of added CaCl2) was subtracted from the total activity assayed in the presence of Ca^2+.

Data set [4] concerns brine shrimp (Artemia salina Leach). The note with it: determined by Meyer et al.; cited from earlier work.
Where [5] appears, read: read-out: INHIBITION OF Ca^2+ -ATPase IC50.
Setting [6] is: absence of calmodulin, read-out: IC50 (-CaM).
The mark [7] stands for this setting: presence of calmodulin (0.3 μM), read-out: IC50 (+CaM).

Values after ≈ are worked out from the molar mass of the structure shown. Values joined by “and” are separate entries in the source; they are usually repeats but may differ in a detail not shown here. Equal values may be shown once. Read-outs that look alike come from different tables or passages of the source. A value given as a limit tells only on which side of the number the result lay.

T1 sequence (P23634 1-1205 isoform P23634-6): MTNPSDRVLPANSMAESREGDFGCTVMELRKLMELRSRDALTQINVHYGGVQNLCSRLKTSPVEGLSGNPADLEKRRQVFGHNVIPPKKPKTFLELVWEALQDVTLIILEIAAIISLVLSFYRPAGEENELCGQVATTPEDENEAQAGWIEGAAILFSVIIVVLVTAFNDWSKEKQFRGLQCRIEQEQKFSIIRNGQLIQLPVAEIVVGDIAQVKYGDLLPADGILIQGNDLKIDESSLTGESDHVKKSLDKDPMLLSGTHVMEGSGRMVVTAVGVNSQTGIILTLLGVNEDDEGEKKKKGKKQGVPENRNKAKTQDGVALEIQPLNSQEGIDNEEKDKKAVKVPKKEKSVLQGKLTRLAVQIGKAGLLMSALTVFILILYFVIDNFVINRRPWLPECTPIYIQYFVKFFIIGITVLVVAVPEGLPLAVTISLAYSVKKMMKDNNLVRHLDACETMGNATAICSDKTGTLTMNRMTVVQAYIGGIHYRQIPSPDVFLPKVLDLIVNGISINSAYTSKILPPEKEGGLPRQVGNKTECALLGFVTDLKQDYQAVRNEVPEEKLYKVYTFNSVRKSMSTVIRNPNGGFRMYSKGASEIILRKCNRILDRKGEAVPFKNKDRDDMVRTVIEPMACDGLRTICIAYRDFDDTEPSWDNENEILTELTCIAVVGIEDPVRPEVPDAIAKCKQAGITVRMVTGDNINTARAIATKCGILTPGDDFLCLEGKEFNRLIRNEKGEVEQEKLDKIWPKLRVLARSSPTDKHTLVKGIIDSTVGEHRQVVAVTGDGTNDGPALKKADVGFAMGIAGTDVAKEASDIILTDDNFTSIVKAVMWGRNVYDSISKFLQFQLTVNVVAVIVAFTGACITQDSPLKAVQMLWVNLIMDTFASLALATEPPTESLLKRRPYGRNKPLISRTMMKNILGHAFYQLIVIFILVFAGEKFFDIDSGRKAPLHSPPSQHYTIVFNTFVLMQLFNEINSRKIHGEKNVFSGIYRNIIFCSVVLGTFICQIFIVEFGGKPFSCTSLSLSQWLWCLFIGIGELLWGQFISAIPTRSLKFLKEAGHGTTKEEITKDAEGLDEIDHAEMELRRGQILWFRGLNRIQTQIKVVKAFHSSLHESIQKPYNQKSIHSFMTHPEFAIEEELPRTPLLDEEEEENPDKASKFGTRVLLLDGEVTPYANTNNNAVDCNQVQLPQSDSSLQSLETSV
T1 sequence (P35613 140-385 partner limits assumed): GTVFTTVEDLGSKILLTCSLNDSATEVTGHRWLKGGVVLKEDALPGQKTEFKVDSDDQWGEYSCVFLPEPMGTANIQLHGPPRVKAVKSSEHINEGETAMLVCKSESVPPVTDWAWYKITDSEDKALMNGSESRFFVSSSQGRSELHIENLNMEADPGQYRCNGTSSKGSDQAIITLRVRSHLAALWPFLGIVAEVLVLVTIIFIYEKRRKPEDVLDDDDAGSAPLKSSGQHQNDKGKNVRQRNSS

In the case of `Oc1ccccc1CCCCCCCCCCc1ccccc1O` [1,10-bis(2-hydroxyphenyl)decane], in data set [1], the “Ca^2+ -ATPase inhibitory activity (in words)” value is “strongest Ca^2+ -ATPase inhibition among the synthesised phenolic compounds”, the inhibition at 25 µM was 100% and the “Ca^2+ -ATPase inhibitory activity relative to striatol” value was “two-fold higher”. The half-maximal inhibitory concentration (IC50) in data set [1] (setting [5]) worked out at 7.6 µM. Also, in data set [2] (24 hours), the “toxicity to brine shrimp (in words)” value is recorded as “moderately toxic”; the LC50 is 1.9 µM and 0.62 µg/mL. Further, the “Ca^2+ -ATPase inhibitory activity (in words)” value in data set [3] is given as “most potent inhibitors of plasma Ca^2+ -ATPase among the synthesised substances”. Moreover, the IC50 in data set [3] (setting [6]) turned out to be 8.4 µM. Besides, the IC50 in data set [3] (setting [7]) came out at 9 µM.

In the case of `Oc1ccc(CCCCCCCCCCc2ccc(O)cc2O)c(O)c1` [1,10-bis(2,4-dihydroxyphenyl)decane], in data set [2] (24 hours), the “toxicity to brine shrimp (in words)” value is “relatively low toxicity”. The LC50 in data set [2] (24 hours) was 37 µM and 13 µg/mL. For the same compound, the “Ca^2+ -ATPase inhibitory activity (in words)” value in data set [3] is listed as “most potent inhibitors of plasma Ca^2+ -ATPase among the synthesised substances”. Besides, the half-inhibitory concentration (IC50) in data set [3] (setting [6]) stood at 10 µM; in data set [3] (setting [7]), 16 µM.

As for `Oc1ccc(CCCCCCCCc2ccc(O)cc2O)c(O)c1` [1,8-bis(2,4-dihydroxyphenyl)octane], the LC50 in data set [2] (24 hours) was 74 µM and 24 µg/mL. Besides, the IC50 in data set [3] (setting [6]) worked out at 50 µM; in data set [3] (setting [7]), 48 µM.

Regarding `CCCCCCCCCC(c1ccccc1O)c1ccccc1O` [1,1-bis(2-hydroxyphenyl)decane], the LC50 in data set [2] (24 hours) is 14 µM and 4.6 µg/mL. Further, the IC50 came to 74 µM in data set [3] (setting [6]) and 68 µM in data set [3] (setting [7]).

On to `CCCCCCCCCCCCc1ccc(O)cc1O` [4-dodecylresorcinol, reference compound], for which the “Ca^2+ -ATPase inhibitory activity (in words)” value in data set [1] is listed as “most potent among the alkylresorcinols tested”. For the same compound, the inhibition at 100 µM in data set [1] (at 100 μM) came to 68%. The concentration for half-maximal inhibition (IC50) in data set [1] (setting [5]) was found to be 69 µM; in data set [3] (setting [6]), 80 µM; in data set [3] (setting [7]), 100 µM. Besides, the LC50 in data set [2] (24 hours) is 8.8 µM and 2.4 µg/mL.

In the case of `Oc1ccc(CCCCCCCCCCCCc2ccc(O)cc2O)c(O)c1` [1,12-bis(2,4-dihydroxyphenyl)dodecane], the LC50 in data set [2] (24 hours) was 14 µM and 5.4 µg/mL. Moreover, the IC50 in data set [3] (setting [6]) was 12 µM; in data set [3] (setting [7]), 20 µM.

With `C=C(C)C(CC=C(C)C)Cc1c(O)cc(O)c2c1OC(c1c(O)cccc1O)CC2=O` (centres unmarked) [5,7,2',6'-tetrahydroxy-8-lavandulylflavanone], the LC50 in data set [2] (24 hours) is > 100 µM and > 42 µg/mL. Also, the IC50 in data set [3] (setting [6]) stood at 20 µM.

With `Cc1ccc(CCCCCCCCCCc2ccc(C)c(O)c2)cc1O` [1,10-bis(3-hydroxy-4-methylphenyl)decane], the 50% lethal concentration (LC50) in data set [2] (24 hours) was 11 µM and 3.9 µg/mL. Besides, the figures for the IC50 in data set [3] (setting [6]) and in data set [3] (setting [7]) were 51 µM and 48 µM, respectively.

Turning to `Cc1cccc(CCCCCCCCCCc2cccc(C)c2O)c1O` [1,10-bis(2-hydroxy-3-methylphenyl)decane], the LC50 in data set [2] (24 hours) is 5.8 µM and 2.1 µg/mL. Also, the results for the IC50 in data set [3] (setting [6]) and in data set [3] (setting [7]) were 50 µM and 55 µM, respectively.

Consider `Cc1cc(CCCCCCCCCCc2ccc(O)c(C)c2)ccc1O` [1,10-bis(4-hydroxy-3-methylphenyl)decane], for which the LC50 in data set [2] (24 hours) is 4.2 µM and 1.5 µg/mL. Besides, the 50% inhibitory concentration (IC50) in data set [3] (setting [6]) turned out to be 100 µM; in data set [3] (setting [7]) it was 94 µM.

For the compound `Oc1ccc(CCCCCCCCCCCc2ccc(O)cc2O)c(O)c1` [1,11-bis(2,4-dihydroxyphenyl)undecane], the 50% lethal concentration (LC50) in data set [2] (24 hours) is > 25 µM and > 9.3 µg/mL. Moreover, the figures for the IC50 in data set [3] (setting [6]) and in data set [3] (setting [7]) were 25 µM and 21.7 µM, respectively.

Consider `COc1cc([C@@H]2c3cc4c(cc3[C@H](O)[C@H]3COC(=O)[C@H]23)OCO4)cc(OC)c1OC` [podophyllotoxin, reference compound], for which, in data set [4], the LC50 was 5.8 µM and the “LC50 brine shrimp (Meyer et al.)” value is 2.4 mg/L (≈ 5.79 µM). The LC50 in data set [2] (24 h) was 3.8 µM and 1.6 µg/mL.

For the compound `Cc1c(O)ccc(CCCCCCCCCCc2ccc(O)c(C)c2O)c1O` [1,10-bis(2,4-dihydroxy-3-methylphenyl)decane], in data set [2] (24 hours), the 50% lethal concentration (LC50) was > 25 µM and > 9.7 µg/mL. Also, the 50% inhibitory concentration (IC50) in data set [3] (setting [6]) and in data set [3] (setting [7]) was 100 µM throughout.

With `Oc1ccccc1CCCCCCCCCCCCc1ccccc1O` [1,12-bis(2-hydroxyphenyl)dodecane], in data set [1], the “Ca^2+ -ATPase inhibitory activity (in words)” value was “strongest Ca^2+ -ATPase inhibition among the synthesised phenolic compounds”, the inhibition at 25 µM stood at 100% and the “Ca^2+ -ATPase inhibitory activity relative to striatol” value was “two-fold higher”. In addition, in data set [1] (setting [5]), the concentration for half-maximal inhibition (IC50) was 8.3 µM. In addition, the LC50 in data set [2] (24 hours) is 2.6 µM and 0.94 µg/mL. For the same compound, the half-maximal inhibitory concentration (IC50) in data set [3] (setting [6]) came to 12.5 µM. In data set [3] (setting [7]), the concentration for half-maximal inhibition (IC50) came to 13 µM.

`CCCCCCCCCc1ccccc1O` [2-nonylphenol]: the half-inhibitory concentration (IC50) worked out at 30 µM in data set [1]; 40 µM in data set [3] (IC50 (+CaM), presence of calmodulin (0.3 μM)); 36 µM in data set [3] (IC50 (-CaM), absence of calmodulin). Besides, the inhibition at 100 µM in data set [1] came out at 95%. The LC50 in data set [2] (24 h) was 480 nM and 0.11 µg/mL.

As to `Cc1ccc(CCCCCCCCCCc2ccc(C)cc2O)c(O)c1` [1,10-bis(2-hydroxy-4-methylphenyl)decane], in data set [2] (24 hours), the “toxicity to brine shrimp (in words)” value is recorded as “reduced toxicity”; the LC50 was 14 µM and 5 µg/mL. Further, in data set [3] (setting [6]), the IC50 is 29 µM. The 50% inhibitory concentration (IC50) in data set [3] (setting [7]) was determined as 29 µM.

What is called inhibition is the relative decrease from the control value, in per cent. For orientation: IC50 means the midpoint of a concentration-inhibition curve. One may read the LC50 as the concentration lethal to half of the exposed cells or organisms.
